Laboratory results from US20070015723A1, “Antiviral oligonucleotides having a conserved G4 core sequence” (priority 1992, published 2007).
Strand notation (5' to 3'): a small letter for the sugar, then the base; units joined by * are phosphorothioate-linked, units joined directly phosphodiester-linked; [ ] holds rarer units or linkages, { } end groups; capitals alone tell only the bases. d = 2'-deoxy (DNA)

The substances below were run against T1, human type II phospholipase A2 (Homo sapiens, UniProt P14555) (assay: Human type II phospholipase A2 enzyme assay (3H-oleic acid labelled E. coli substrate)). Conditions: not given.
T1 sequence (P14555 21-144): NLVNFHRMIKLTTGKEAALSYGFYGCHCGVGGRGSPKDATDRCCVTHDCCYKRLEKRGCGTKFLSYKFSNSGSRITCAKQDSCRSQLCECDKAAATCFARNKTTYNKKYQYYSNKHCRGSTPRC
Format: biochemical
“ISIS 3628: GGAGCCCTfCTATACCCACCC, phosphorothioate, SEQ ID NO 78” was tested, and the “I.C.50 relative to ISIS 3196 (fold higher)” value was “approximately 10 fold”. With “ISIS 3631: AGGTCGAGGAGTGGTCTGAGC, phosphorothioate, SEQ ID NO 81 (dA*dG*dG*dT*dC*dG*dA*dG*dG*dA*dG*dT*dG*dG*dT*dC*dT*dG*dA*dG*dC)” the “I.C.50 relative to ISIS 3196 (fold higher)” value was “approximately 10 fold”.

Same assay, conditions: 1 μM; Table 4
With “ISIS 3468: GGGACTCAGCAACGAGGGGTG, phosphorothioate, SEQ ID NO 65 (dG*dG*dG*dA*dC*dT*dC*dA*dG*dC*dA*dA*dC*dG*dA*dG*dG*dG*dG*dT*dG)” the “% Inhibition (1 μM)” value was 97.5%. For “ISIS 3629: CACCCCTCGTTGCTGAGTCCC, phosphorothioate, SEQ ID NO 79 (dC*dA*dC*dC*dC*dC*dT*dC*dG*dT*dT*dG*dC*dT*dG*dA*dG*dT*dC*dC*dC)”, the “% Inhibition (1 μM)” value was 20.5%. With “ISIS 3676: AGCTCTTACCAAAGATCATGA, phosphorothioate, SEQ ID NO 89 (dA*dG*dC*dT*dC*dT*dT*dA*dC*dC*dA*dA*dA*dG*dA*dT*dC*dA*dT*dG*dA)” the “% Inhibition (1 μM)” value was 24.5%. In the case of “ISIS 3630: TCTCATACCCTCCCTCCCTAC, phosphorothioate, SEQ ID NO 80 (dT*dC*dT*dC*dA*dT*dA*dC*dC*dC*dT*dC*dC*dC*dT*dC*dC*dC*dT*dA*dC)”, the “% Inhibition (1 μM)” value is reported as 17.6%. With “ISIS 3471: AAGGAACTTGGTTAGGGTAGG, phosphorothioate, SEQ ID NO 67 (dA*dA*dG*dG*dA*dA*dC*dT*dT*dG*dG*dT*dT*dA*dG*dG*dG*dT*dA*dG*dG)” the “% Inhibition (1 μM)” value was 34.5%. For “ISIS 3628: GGAGCCCTfCTATACCCACCC, phosphorothioate, SEQ ID NO 78”, the “% Inhibition (1 μM)” value was 13.6%. With “ISIS 3663: GTCTGCTGGGTGGTCTGAACT, phosphorothioate, SEQ ID NO 85” the “% Inhibition (1 μM)” value was 16.3%. In the case of “ISIS 3475: TCTCATTCTGGGTGGGTATAG, phosphorothioate, SEQ ID NO 71 (dT*dC*dT*dC*dA*dT*dT*dC*dT*dG*dG*dG*dT*dG*dG*dG*dT*dA*dT*dA*dG)”, the “% Inhibition (1 μM)” value is reported as 67.0%. With “ISIS 3181: TCTGCCCCGGCCGTCGCTCCC, phosphorothioate, SEQ ID NO 58 (dT*dC*dT*dG*dC*dC*dC*dC*dG*dG*dC*dC*dG*dT*dC*dG*dC*dT*dC*dC*dC)” the “% Inhibition (1 μM)” value was 42.7%. With “ISIS 3669: GGTGACAAATGCAGATGGACT, phosphorothioate, SEQ ID NO 87 (dG*dG*dT*dG*dA*dC*dA*dA*dA*dT*dG*dC*dA*dG*dA*dT*dG*dG*dA*dC*dT)” the “% Inhibition (1 μM)” value was 34.7%. With “ISIS 3182: CAGAGGACTCCAGAGTTGTAT, phosphorothioate, SEQ ID NO 59 (dC*dA*dG*dA*dG*dG*dA*dC*dT*dC*dC*dA*dG*dA*dG*dT*dT*dG*dT*dA*dT)” the “% Inhibition (1 μM)” value was 30.2%. For “ISIS 4133: AGTGCACGTTGAGTATGTGAG, phosphorothioate, SEQ ID NO 95 (dA*dG*dT*dG*dC*dA*dC*dG*dT*dT*dG*dA*dG*dT*dA*dT*dG*dT*dG*dA*dG)”, the “% Inhibition (1 μM)” value was 37.3%. With “ISIS 3633: GTAGGGATGGGAGTGAAGGAG, phosphorothioate, SEQ ID NO 83 (dG*dT*dA*dG*dG*dG*dA*dT*dG*dG*dG*dA*dG*dT*dG*dA*dA*dG*dG*dA*dG)” the “% Inhibition (1 μM)” value was 58.5%. For “ISIS 3480: TTGCTTTATTCAGAAGAGACC, phosphorothioate, SEQ ID NO 76 (dT*dT*dG*dC*dT*dT*dT*dA*dT*dT*dC*dA*dG*dA*dA*dG*dA*dG*dA*dC*dC)”, the “% Inhibition (1 μM)” value was 24.5%. For “ISIS 3185: CAAAGATCATGATCACTGCCA, phosphorothioate, SEQ ID NO 61 (dC*dA*dA*dA*dG*dA*dT*dC*dA*dT*dG*dA*dT*dC*dA*dC*dT*dG*dC*dC*dA)”, the “% Inhibition (1 μM)” value was 22.7%. For “ISIS 3479: CCGGAGTACAGGTTCTTTGGT, phosphorothioate, SEQ ID NO 75”, the “% Inhibition (1 μM)” value was 42.3%. For “ISIS 3477: GTGGAGGAGAGCAGTAGAAGG, phosphorothioate, SEQ ID NO 73 (dG*dT*dG*dG*dA*dG*dG*dA*dG*dA*dG*dC*dA*dG*dT*dA*dG*dA*dA*dG*dG)”, the “% Inhibition (1 μM)” value was 54.7%. In the case of “ISIS 3712: AGGAGTCCTGTTTTGAAATCA, phosphorothioate, SEQ ID NO 94 (dA*dG*dG*dA*dG*dT*dC*dC*dT*dG*dT*dT*dT*dT*dG*dA*dA*dA*dT*dC*dA)”, the “% Inhibition (1 μM)” value is reported as 31.8%. “ISIS 3474: ATAGAAGGGCTCCTGCCTGGC, phosphorothioate, SEQ ID NO 70 (dA*dT*dA*dG*dA*dA*dG*dG*dG*dC*dT*dC*dC*dT*dG*dC*dC*dT*dG*dG*dC)” was tested, and the “% Inhibition (1 μM)” value was 13.3%. For “ISIS 3193: CCTGCAGTAGGCCTGGAAGGA, phosphorothioate, SEQ ID NO 64 (dC*dC*dT*dG*dC*dA*dG*dT*dA*dG*dG*dC*dC*dT*dG*dG*dA*dA*dG*dG*dA)”, the “% Inhibition (1 μM)” value was 22.6%. For “ISIS 3679: AGTAGGCCTGGAAGGAAATTT, phosphorothioate, SEQ ID NO 90 (dA*dG*dT*dA*dG*dG*dC*dC*dT*dG*dG*dA*dA*dG*dG*dA*dA*dA*dT*dT*dT)”, the “% Inhibition (1 μM)” value was 30.3%. “ISIS 3478: TGGTTAAGCACGGAGTTGAGG, phosphorothioate, SEQ ID NO 74 (dT*dG*dG*dT*dT*dA*dA*dG*dC*dA*dC*dG*dG*dA*dG*dT*dT*dG*dA*dG*dG)” was tested, and the “% Inhibition (1 μM)” value was 26.4%. For “ISIS 3659: TGCTCCTCCTTGGTGGCTCTC, phosphorothioate, SEQ ID NO 84 (dT*dG*dC*dT*dC*dC*dT*dC*dC*dT*dT*dG*dG*dT*dG*dG*dC*dT*dC*dT*dC)”, the “% Inhibition (1 μM)” value was 38.2%. In the case of “ISIS 3481: TTTTTGATTTGCTAATTGCTT, phosphorothioate, SEQ ID NO 77 (dT*dT*dT*dT*dT*dG*dA*dT*dT*dT*dG*dC*dT*dA*dA*dT*dT*dG*dC*dT*dT)”, the “% Inhibition (1 μM)” value is reported as 2.2%. For “ISIS 3697: ACTCTTACCACAGGTGATTCT, phosphorothioate, SEQ ID NO 93 (dA*dC*dT*dC*dT*dT*dA*dC*dC*dA*dC*dA*dG*dG*dT*dG*dA*dT*dT*dC*dT)”, the “% Inhibition (1 μM)” value was 39%. In the case of “ISIS 3473: CTGCCTGGCCTCTAGGATGGG, phosphorothioate, SEQ ID NO 69 (dC*dT*dG*dC*dC*dT*dG*dG*dC*dC*dT*dC*dT*dA*dG*dG*dA*dT*dG*dG*dG)”, the “% Inhibition (1 μM)” value is reported as 25.9%. For “ISIS 3694: ACAGCAGCTGTGAGGAGACAC, phosphorothioate, SEQ ID NO 92 (dA*dC*dA*dG*dC*dA*dG*dC*dT*dG*dT*dG*dA*dG*dG*dA*dG*dA*dC*dA*dC)”, the “% Inhibition (1 μM)” value was 28.2%. With “ISIS 3688: TGGCCTCACCGATCCGTTGCA, phosphorothioate, SEQ ID NO 91 (dT*dG*dG*dC*dC*dT*dC*dA*dC*dC*dG*dA*dT*dC*dC*dG*dT*dT*dG*dC*dA)” the “% Inhibition (1 μM)” value was 43.1%. With “ISIS 4149: CTACGGCAGAGACGAGATAGC, phosphorothioate, SEQ ID NO 96 (dC*dT*dA*dC*dG*dG*dC*dA*dG*dA*dG*dA*dC*dG*dA*dG*dA*dT*dA*dG*dC)” the “% Inhibition (1 μM)” value was 20.2%. “ISIS 3192: GGAAGGTTTCGAGQGAAGAGG, phosphorothioate, SEQ ID NO 63” was tested, and the “% Inhibition (1 μM)” value was 28.1%. In the case of “ISIS 3631: AGGTCGAGGAGTGGTCTGAGC, phosphorothioate, SEQ ID NO 81 (dA*dG*dG*dT*dC*dG*dA*dG*dG*dA*dG*dT*dG*dG*dT*dC*dT*dG*dA*dG*dC)”, the “% Inhibition (1 μM)” value is reported as 20.7%. In the case of “ISIS 3632: CCAGGAGAGGTCGGTAAGGCG, phosphorothioate, SEQ ID NO 82 (dC*dC*dA*dG*dG*dA*dG*dA*dG*dG*dT*dC*dG*dG*dT*dA*dA*dG*dG*dC*dG)”, the “% Inhibition (1 μM)” value is reported as 29.2%. For “ISIS 3665: GGACTGGCCTAGCTCCTCTGC, phosphorothioate, SEQ ID NO 86 (dG*dG*dA*dC*dT*dG*dG*dC*dC*dT*dA*dG*dC*dT*dC*dC*dT*dC*dT*dG*dC)”, the “% Inhibition (1 μM)” value was 45.8%. With “ISIS 3671: TAGGAGGGTCTTCATGGTAAG, phosphorothioate, SEQ ID NO 88 (dT*dA*dG*dG*dA*dG*dG*dG*dT*dC*dT*dT*dC*dA*dT*dG*dG*dT*dA*dA*dG)” the “% Inhibition (1 μM)” value was 49.3%. With “ISIS 3184: TTCATGGTAAGAGTTCTTGGG, phosphorothioate, SEQ ID NO 60 (dT*dT*dC*dA*dT*dG*dG*dT*dA*dA*dG*dA*dG*dT*dT*dC*dT*dT*dG*dG*dG)” the “% Inhibition (1 μM)” value was 25.1%.

Same assay, conditions: 1 μM; Table 5, two separate experiments
For “ISIS 4957: GGG TGG ATA TAG, SEQ ID NO 106 (dG*dG*dG*dT*dG*dG*dA*dT*dA*dT*dA*dG; aptamer)”, the “% Inhibition (1 μM)” value was 81.9%. In the case of “ISIS 4946: GGG TGG GAA TAG, SEQ ID NO 107 (dG*dG*dG*dT*dG*dG*dG*dA*dA*dT*dA*dG; aptamer)”, the “% Inhibition (1 μM)” value is reported as 73.2%. For “ISIS 4956: GGG CGG GTA TAG, SEQ ID NO 105 (dG*dG*dG*dC*dG*dG*dG*dT*dA*dT*dA*dG; aptamer)”, the “% Inhibition (1 μM)” value was 92.0%. “ISIS 4947: AGG TGG GTA TAG, SEQ ID NO 103 (dA*dG*dG*dT*dG*dG*dG*dT*dA*dT*dA*dG; aptamer)” was tested, and the “% Inhibition (1 μM)” value was 22.7%. With “GTA TAG AAG GGC TCC: truncated version of ISIS 3196, SEQ ID NO 100 (dG*dT*dA*dT*dA*dG*dA*dA*dG*dG*dG*dC*dT*dC*dC)” the “% Inhibition (1 μM)” value was 9.2%. With “TGG GTA TAG AAG GGC: truncated version of ISIS 3196, SEQ ID NO 102 (dT*dG*dG*dG*dT*dA*dT*dA*dG*dA*dA*dG*dG*dG*dC)” the “% Inhibition (1 μM)” value was 33.5%. For “ISIS 4962: GGG TGG GTA T, SEQ ID NO 108 (dG*dG*dG*dT*dG*dG*dG*dT*dA*dT)”, the “% Inhibition (1 μM)” value was 36.3%. “ISIS 4955: GGG AGG GTA TAG, SEQ ID NO 104 (dG*dG*dG*dA*dG*dG*dG*dT*dA*dT*dA*dG; aptamer)” was tested, and the “% Inhibition (1 μM)” value was 97.5%. With “TAG AAG GGC TCC: truncated version of ISIS 3196, SEQ ID NO 101 (dT*dA*dG*dA*dA*dG*dG*dG*dC*dT*dC*dC)” the “% Inhibition (1 μM)” value was 0%. “GGG TGG GTA TAG AAG: truncated version of ISIS 3196, SEQ ID NO 98 (dG*dG*dG*dT*dG*dG*dG*dT*dA*dT*dA*dG*dA*dA*dG)” was tested, and the “% Inhibition (1 μM)” value was 82.5%.

Same assay, conditions: concentrations as high as 10 μM
In the case of “ISIS 1573: phosphorothioate deoxyoligonucleotide, SEQ ID NO: 120 (dG*dA*dG*dG*dC*dT*dG*dA*dG*dG*dT*dG*dG*dG*dA*dG*dG*dA)”, the “inhibition of phospholipase A2” value is reported as “did not significantly inhibit”.

Same assay, conditions: increasing E. coli substrate; ISIS 3481 at 0.2 μM and 2 μM
For “ISIS 3481: TTTTTGATTTGCTAATTGCTT, phosphorothioate, SEQ ID NO 77 (dT*dT*dT*dT*dT*dG*dA*dT*dT*dT*dG*dC*dT*dA*dA*dT*dT*dG*dC*dT*dT)”, the “effect on substrate kinetics” value was “did not modify the substrate kinetics”.
